PubChem BioAssay AID1963858 (Molecular Pharmacology Branch, DTP, NCI, 2024)
pIC50: −log10 of the molar value.

Tested on: HOP-62 multicell spheroids with HUVEC/MSC, viability
Experiment: Anticancer human tumor HOP-62 cell line growth inhibition [KRAS2];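 note: viability read after a week of compound exposure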;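 for viability, T/C: 100% = DMSO vehicle-treated spheroids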
Conditions: for pIC50: curve of first compound; for viability, T/C: stronger effect = lower value
Procedure, shortened: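 KRAS-mutant tumor cells were grown as spheroids with HUVEC endothelial cells and human MSCs as stroma. Targeted agents were tested alone and with KRAS pathway inhibitors. Doses started at or near clinical Cmax, or 10 microM, descending half-log.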

[1] = second compound 0.0316 µM, first compound 0.0316 µM
[2] = second compound 0.0316 µM, first compound 0.1 µM
[3] = second compound 0.0316 µM, first compound 0.316 µM
[4] = second compound 0.0316 µM, first compound 1 µM
[5] = second compound 0.0316 µM, first compound 3.16 µM
[6] = second compound 0.0316 µM, first compound 10 µM
[7] = second compound 0.1 µM, first compound 0.0316 µM
[8] = second compound 0.1 µM, first compound 0.1 µM
[9] = second compound 0.1 µM, first compound 0.316 µM
[10] = second compound 0.1 µM, first compound 1 µM
[11] = second compound 0.1 µM, first compound 3.16 µM
[12] = second compound 0.1 µM, first compound 10 µM
[13] = second compound 0.316 µM, first compound 0.0316 µM
[14] = second compound 0.316 µM, first compound 0.1 µM
[15] = second compound 0.316 µM, first compound 0.316 µM
[16] = second compound 0.316 µM, first compound 1 µM
[17] = second compound 0.316 µM, first compound 3.16 µM
[18] = second compound 0.316 µM, first compound 10 µM
[19] = second compound 1 µM, first compound 0.0316 µM
[20] = second compound 1 µM, first compound 0.1 µM
[21] = second compound 1 µM, first compound 0.316 µM
[22] = second compound 1 µM, first compound 1 µM
[23] = second compound 1 µM, first compound 3.16 µM
[24] = second compound 1 µM, first compound 10 µM
[25] = second compound 3.16 µM, first compound 0.0316 µM
[26] = second compound 3.16 µM, first compound 0.1 µM
[27] = second compound 3.16 µM, first compound 0.316 µM
[28] = second compound 3.16 µM, first compound 1 µM
[29] = second compound 3.16 µM, first compound 3.16 µM
[30] = second compound 3.16 µM, first compound 10 µM
[31] = second compound 0.1 µM, first compound 0.01 µM
[32] = second compound 0.316 µM, first compound 0.01 µM
[33] = second compound 1 µM, first compound 0.01 µM
[34] = second compound 3.16 µM, first compound 0.01 µM
[35] = second compound 10 µM, first compound 0.01 µM
[36] = second compound 10 µM, first compound 0.0316 µM
[37] = second compound 10 µM, first compound 0.1 µM
[38] = second compound 10 µM, first compound 0.316 µM
[39] = second compound 10 µM, first compound 1 µM
[40] = second compound 10 µM, first compound 3.16 µM

O=C(c1cc(Cc2n[nH]c(=O)c3ccccc23)ccc1F)N1CCN(C(=O)C2CC2)CC1 + C=CC(=O)N1CCN(c2nc(OCC3CCCN3C)nc3c2CCN(c2cccc4cccc(C)c24)C3)CC1CC#N
pIC50 (second compound 0.0316 µM): 6.16
pIC50 (second compound 0.1 µM): > 7.50
pIC50 (second compound 0.316 µM): > 7.50
pIC50 (second compound 1 µM): > 7.50
pIC50 (second compound 3.16 µM): > 7.50
viability, T/C [1]: 76.6%
viability, T/C [2]: 66.2%
viability, T/C [3]: 102%
viability, T/C [4]: 35.3%
viability, T/C [5]: 34.3%
viability, T/C [6]: 27.8%
viability, T/C [7]: 45%
viability, T/C [8]: 40.5%
viability, T/C [9]: 33.8%
viability, T/C [10]: 31.4%
viability, T/C [11]: 29%
viability, T/C [12]: 23%
viability, T/C [13]: 38.1%
viability, T/C [14]: 37.8%
viability, T/C [15]: 35.2%
viability, T/C [16]: 26.4%
viability, T/C [17]: 20.9%
viability, T/C [18]: 18.6%
viability, T/C [19]: 26.4%
viability, T/C [20]: 22.7%
viability, T/C [21]: 39.3%
viability, T/C [22]: 23.1%
viability, T/C [23]: 21.7%
viability, T/C [24]: 21.4%
viability, T/C [25]: 11.3%
viability, T/C [26]: 1.1%
viability, T/C [27]: 36.4%
viability, T/C [28]: 6.37%
viability, T/C [29]: 8.8%
viability, T/C [30]: 1.75%

CC1COCCN1c1cc(-c2ccnn2C)c2ccnc(-c3ccn[nH]3)c2n1 (configuration not stated) + COc1cc2nc(C)nc(NC(C)c3cc(N)cc(C(F)(F)F)c3)c2cc1OC1CCOC1
pIC50 (second compound 0.1 µM): > 8.00
pIC50 (second compound 0.316 µM): 7.16
pIC50 (second compound 1 µM): 7.27
pIC50 (second compound 3.16 µM): 7.64
pIC50 (second compound 10 µM): 7.96
viability, T/C [31]: 8.83%
viability, T/C [7]: 6.78%
viability, T/C [8]: 7.26%
viability, T/C [9]: 6.53%
viability, T/C [10]: 8.4%
viability, T/C [11]: 10.7%
viability, T/C [32]: 125%
viability, T/C [13]: 83.5%
viability, T/C [14]: 33.9%
viability, T/C [15]: 16.5%
viability, T/C [16]: 13.4%
viability, T/C [17]: 14.4%
viability, T/C [33]: 120%
viability, T/C [19]: 65.8%
viability, T/C [20]: 31.4%
viability, T/C [21]: 19.6%
viability, T/C [22]: 12.5%
viability, T/C [23]: 11.2%
viability, T/C [34]: 77.4%
viability, T/C [25]: 38.2%
viability, T/C [26]: 22.9%
viability, T/C [27]: 13.9%
viability, T/C [28]: 9.69%
viability, T/C [29]: 10.8%
viability, T/C [35]: 52.1%
viability, T/C [36]: 36%
viability, T/C [37]: 27.4%
viability, T/C [38]: 22.3%
viability, T/C [39]: 15.8%
viability, T/C [40]: 12.9%

CC(C)NCC(C(=O)N1CCN(c2ncnc3c2C(C)CC3O)CC1)c1ccc(Cl)cc1 (configuration not stated)
viability, T/C (compound 0.0316 µM): 101% [middle of 5 runs]
viability, T/C (compound 0.1 µM): 104% [middle of 5 runs]
viability, T/C (compound 0.316 µM): 80.4% [middle of 5 runs]
viability, T/C (compound 1 µM): 62.8% [middle of 5 runs]
viability, T/C (compound 3.16 µM): 27.9% [middle of 5 runs]
viability, T/C (compound 10 µM): 13.2% [middle of 5 runs]
IC50 (curve of compound): 1.49 µM [middle of 5 runs]

Cn1nccc1Nc1nccc(-c2cc3c(s2)C(C)(C)N(CCN2CCOCC2)C3=O)n1 + C=CC(=O)N1CCN(c2nc(OCC3CCCN3C)nc3c2CCN(c2cccc4cccc(C)c24)C3)CC1CC#N
pIC50 (second compound 0.0316 µM): 6.58
pIC50 (second compound 0.1 µM): 6.84
pIC50 (second compound 0.316 µM): > 7.50
pIC50 (second compound 1 µM): > 7.50
pIC50 (second compound 3.16 µM): > 7.50
viability, T/C [1]: 84.1%
viability, T/C [2]: 68%
viability, T/C [3]: 50.4%
viability, T/C [4]: 20.3%
viability, T/C [5]: 22.4%
viability, T/C [6]: 22.7%
viability, T/C [7]: 58.2%
viability, T/C [8]: 53%
viability, T/C [9]: 39.3%
viability, T/C [10]: 17.1%
viability, T/C [11]: 17.2%
viability, T/C [12]: 17%
viability, T/C [13]: 45.3%
viability, T/C [14]: 39.2%
viability, T/C [15]: 18.1%
viability, T/C [16]: 18%
viability, T/C [17]: 13.6%
viability, T/C [18]: 16%
viability, T/C [19]: 27.7%
viability, T/C [20]: 30.3%
viability, T/C [21]: 13.1%
viability, T/C [22]: 12.3%
viability, T/C [23]: 11.3%
viability, T/C [24]: 12.6%
viability, T/C [25]: 2.34%
viability, T/C [26]: 0.65%
viability, T/C [27]: 1.84%
viability, T/C [28]: 4.87%
viability, T/C [29]: 4.21%
viability, T/C [30]: 0.35%

Cn1ncnc1[C@H]1c2n[nH]c(=O)c3cc(F)cc(c23)N[C@@H]1c1ccc(F)cc1 + CC1OCC2(CCN(c3cnc(Sc4ccnc(N)c4Cl)c(N)n3)CC2)C1N
pIC50 (second compound 0.1 µM): < 7.00
pIC50 (second compound 0.316 µM): < 7.00
pIC50 (second compound 1 µM): 8.86
pIC50 (second compound 3.16 µM): > 9.50
pIC50 (second compound 10 µM): > 9.50
viability, T/C (second compound 0.1 µM, first compound 0.000316 µM): 88.7%
viability, T/C (second compound 0.1 µM, first compound 0.001 µM): 97.9%
viability, T/C (second compound 0.1 µM, first compound 0.00316 µM): 94.1%
viability, T/C [31]: 87.1%
viability, T/C [7]: 80.2%
viability, T/C [8]: 73%
viability, T/C (second compound 0.316 µM, first compound 0.000316 µM): 86.5%
viability, T/C (second compound 0.316 µM, first compound 0.001 µM): 66.8%
viability, T/C (second compound 0.316 µM, first compound 0.00316 µM): 62.7%
viability, T/C [32]: 69.3%
viability, T/C [13]: 72.5%
viability, T/C [14]: 52.6%
viability, T/C (second compound 1 µM, first compound 0.000316 µM): 65.2%
viability, T/C (second compound 1 µM, first compound 0.001 µM): 56.9%
viability, T/C (second compound 1 µM, first compound 0.00316 µM): 29.8%
viability, T/C [33]: 31.4%
viability, T/C [19]: 32.7%
viability, T/C [20]: 37.9%
viability, T/C (second compound 3.16 µM, first compound 0.000316 µM): 40.6%
viability, T/C (second compound 3.16 µM, first compound 0.001 µM): 31.7%
viability, T/C (second compound 3.16 µM, first compound 0.00316 µM): 37%
viability, T/C [34]: 23.7%
viability, T/C [25]: 17.5%
viability, T/C [26]: 22.5%
viability, T/C (second compound 10 µM, first compound 0.000316 µM): 36.9%
viability, T/C (second compound 10 µM, first compound 0.001 µM): 30.3%
viability, T/C (second compound 10 µM, first compound 0.00316 µM): 31%
viability, T/C [35]: 27.5%
viability, T/C [36]: 24.1%
viability, T/C [37]: 21.1%

COC(=O)c1ccc2c(C(=Nc3ccc(N(C)C(=O)CN4CCN(C)CC4)cc3)c3ccccc3)c(O)[nH]c2c1 + CNCc1ccccc1-c1csc(C(C)Nc2nc(C)nc3cc(OC)c(OC)cc23)c1
pIC50 (second compound 0.1 µM): 6.61
pIC50 (second compound 0.316 µM): 7.31
pIC50 (second compound 1 µM): > 7.50
pIC50 (second compound 3.16 µM): > 7.50
pIC50 (second compound 10 µM): > 7.50
viability, T/C [7]: 68.1%
viability, T/C [8]: 64.7%
viability, T/C [9]: 40.1%
viability, T/C [10]: 34.6%
viability, T/C [11]: 29.5%
viability, T/C [12]: 5.99%
viability, T/C [13]: 48.3%
viability, T/C [14]: 54.6%
viability, T/C [15]: 35.6%
viability, T/C [16]: 31.4%
viability, T/C [17]: 16.1%
viability, T/C [18]: 3.78%
viability, T/C [19]: 43%
viability, T/C [20]: 32.2%
viability, T/C [21]: 38.6%
viability, T/C [22]: 29.8%
viability, T/C [23]: 0.17%
viability, T/C [24]: 0.9%
viability, T/C [25]: 12.6%
viability, T/C [26]: 0.12%
viability, T/C [27]: 0.09%
viability, T/C [28]: 0.09%
viability, T/C [29]: 0.07%
viability, T/C [30]: 0.1%
viability, T/C [36]: 0.12%
viability, T/C [37]: 0.16%
viability, T/C [38]: 45.8%
viability, T/C [39]: 0.09%
viability, T/C [40]: 0.08%
viability, T/C (second compound 10 µM, first compound 10 µM): 0.35%
